Results taken from patent US8969375B2, “CDK9 kinase inhibitors” (AbbVie Inc., priority 2013, dated 2015).

Experiments:
[1] = test system: H929 cells; assay: Cell viability assay (Cell TiterGlo), H929 cells; format: cell-based, human; settings: Homo sapiens, NCI-H929, 24 hours
Procedure: Cell viability assays were performed using A431 or H929 cells. A431 cells were seeded in 96-well plates at 10,000 cells/well, and after overnight incubation, treated with compounds at 2-times the final concentration to result in a dose response of 3-fold dilutions from 10 μM to 0.0005 μM (50 μL/well, 0.1% final DMSO concentration). H929 cells were seeded in 96-well plates at 10,000 cells/well and treated immediately with compounds as described above. After 24 hours at 37° C., cell viability was measured using Cell TiterGlo reagent (Promega) with a luminescence reader. Alternately, cell viability assays were performed in 384-well format. A431 cells were seeded in 384-well plates at 2500 cells/well and, after overnight incubation, treated with compounds in a dose response of 3-fold dilutions from 10 μM to 0.0005 μM ([…], 0.1% final DMSO concentration). For the H929 viability assay, […] of the compounds was dispensed into 384-well plates in a dose response as described above and cells were immediately seeded in 384-well plates at 2500 cells/well. After 24 hours at […], cell viability was measured using Cell TiterGlo reagent (Promega) with a luminescence reader.

[2] = target: T1, CDK9/Cyclin T1 (Homo sapiens, UniProt P50750); assay: CDK9 enzyme activity, LANCE ULight TR-FRET kinase assay; format: biochemical; settings: 1000 μM ATP, 4 nM CDK9/Cyclin T1, 30 minutes
T1 construct: purchased Carna Biosciences 04-110
Procedure: CDK9 enzyme activities were measured using LANCE ULight TR-FRET kinase assay reagents (PerkinElmer, Waltham, Mass.). Compounds were directly added in 100% DMSO to white low volume assay plates (Perkin Elmer Proxiplate 6008289) using a Labcyte Echo acoustic dispenser. Assay reagents in serine/threonine kinase assay buffer containing 20 mM HEPES, 10 mM MgCl2, 100 mM Na3VO4, and 0.0075% Triton X-100. were added for final reaction mixture concentrations of 1000 μM ATP, 100 nM U-light MBP peptide (Perkin Elmer TRF0109M) and reaction initiated with 4 nM CDK9/Cyclin T1 (Carna Biosciences 04-110). The kinase reaction was carried out for 30 minutes before addition of stopping buffer to a final of 20 mM EDTA and 0.5 nM of LANCE Ultra Europium anti-phospho-MBP antibody (PerkinElmer TRF0201M) in LANCE detection buffer (PerkinElmer CR97-100). The reaction was equilibrated for 1 hour and the signal read in the Perkin Elmer Envision in TR-FRET mode (excitation at 320 nm and emission at 615/665 nm).

T1 sequence (P50750 whole entry): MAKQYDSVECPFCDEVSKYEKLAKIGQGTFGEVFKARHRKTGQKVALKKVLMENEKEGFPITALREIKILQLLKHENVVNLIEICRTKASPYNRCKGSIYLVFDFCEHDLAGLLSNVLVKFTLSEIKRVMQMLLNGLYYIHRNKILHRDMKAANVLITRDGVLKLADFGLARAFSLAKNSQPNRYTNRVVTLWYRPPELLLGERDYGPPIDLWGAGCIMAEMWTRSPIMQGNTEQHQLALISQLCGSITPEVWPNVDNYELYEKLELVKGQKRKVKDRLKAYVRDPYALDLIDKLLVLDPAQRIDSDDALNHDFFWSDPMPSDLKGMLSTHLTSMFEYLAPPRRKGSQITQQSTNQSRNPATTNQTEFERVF
T1 sequence (O60563 whole entry partner): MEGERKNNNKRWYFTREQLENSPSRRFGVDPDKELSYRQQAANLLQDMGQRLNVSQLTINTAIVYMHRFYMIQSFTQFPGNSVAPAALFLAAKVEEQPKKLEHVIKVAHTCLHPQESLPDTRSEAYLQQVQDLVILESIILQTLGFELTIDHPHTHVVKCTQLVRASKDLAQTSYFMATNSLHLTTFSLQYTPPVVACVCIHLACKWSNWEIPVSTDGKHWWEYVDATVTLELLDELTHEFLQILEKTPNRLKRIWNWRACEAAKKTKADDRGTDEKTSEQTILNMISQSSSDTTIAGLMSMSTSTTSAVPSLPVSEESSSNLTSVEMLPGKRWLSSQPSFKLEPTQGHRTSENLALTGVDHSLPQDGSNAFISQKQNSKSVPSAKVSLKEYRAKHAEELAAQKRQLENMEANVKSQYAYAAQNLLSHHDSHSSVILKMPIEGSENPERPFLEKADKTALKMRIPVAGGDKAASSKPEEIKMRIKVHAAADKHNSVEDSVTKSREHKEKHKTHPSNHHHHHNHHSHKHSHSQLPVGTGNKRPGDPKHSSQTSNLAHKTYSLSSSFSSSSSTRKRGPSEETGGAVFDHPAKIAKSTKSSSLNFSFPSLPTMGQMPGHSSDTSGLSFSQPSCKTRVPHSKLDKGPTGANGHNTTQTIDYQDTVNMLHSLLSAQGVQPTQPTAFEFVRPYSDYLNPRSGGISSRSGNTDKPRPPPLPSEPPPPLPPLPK

| SMILES | EC50 [1] [nM] | IC50 [2] [nM] |
| --- | --- | --- |
| Fc1cncc(Cn2ccc3ccc(-c4ccnc5[nH]c(C6=CCCNC6)cc45)nc32)c1 [Example 56, 1′-[(5-fluoropyridin-3-yl)methyl]-2-(1,2,5,6-tetrahydropyridin-3-yl)-1H,1′H-4,6′-bipyrrolo[2,3-b]pyridine] | 250 | 29 |
| CNC(=O)N1CCC(c2cc3c(-c4ccc5ccn(Cc6cncc(F)c6)c5n4)ccnc3[nH]2)CC1 [Example 52, 4-{1′-[(5-fluoropyridin-3-yl)methyl]-1H,1′H-4,6′-bipyrrolo[2,3-b]pyridin-2-yl}-N-methylpiperidine-1-carboxamide] | 1100 | 11 |
| Fc1cncc(Cn2ccc3ncc(-c4ccnc5[nH]c(C6=CCNCC6)cc45)cc32)c1 [Example 50, 1-[(5-fluoropyridin-3-yl)methyl]-6-[2-(1,2,3,6-tetrahydropyridin-4-yl)-1H-pyrrolo[2,3-b]pyridin-4-yl]-1H-pyrrolo[3,2-b]pyridine] | 120 | 17 |
| Fc1cccc(CCn2nnc3ccc(-c4ccnc5[nH]c(C6CCNCC6)cc45)cc32)c1 [Example 32, 1-[2-(3-fluorophenyl)ethyl]-6-{2-(piperidin-4-yl)-1H-pyrrolo[2,3-b]pyridin-4-yl}-1H-benzotriazole] | 890 | 51 |
| CNC(=O)N1CCC(c2cc3c(-c4cnc5ccn(Cc6cncc(F)c6)c5c4)ccnc3[nH]2)CC1 [Example 47, 4-(4-{1-[(5-fluoropyridin-3-yl)methyl]-1H-pyrrolo[3,2-b]pyridin-6-yl}-1H-pyrrolo[2,3-b]pyridin-2-yl)-N-methylpiperidine-1-carboxamide] | 600 | 23 |
| N#Cc1cn(Cc2cccc(F)c2)c2cc(-c3ccnc4[nH]c(C5CCNCC5)cc34)c(F)cc12 [Example 42, 5-fluoro-1-(3-fluorobenzyl)-6-[2-(piperidin-4-yl)-1H-pyrrolo[2,3-b]pyridin-4-yl]-1H-indole-3-carbonitrile] | 210 | 55 |
| O=C(CO)N1CC=C(c2cc3c(-c4ccc5nnn(CC6CCOCC6)c5c4)ccnc3[nH]2)CC1 [Example 38, 2-hydroxy-1-[4-{4-[1-(tetrahydro-2H-pyran-4-ylmethyl)-1H-benzotriazol-6-yl}-1H-pyrrolo[2,3-b]pyridin-2-yl]-3,6-dihydropyridin-1(2H)-yl]ethanone] | 440 | 62 |
| CS(=O)(=O)N1CCC(c2cc3c(-c4ccc5c(C#N)cn(Cc6cccc(F)c6)c5c4)ccnc3[nH]2)CC1 [Example 11, 1-(3-fluorobenzyl)-6-{2-[1-(methylsulfonyl)piperidin-4-yl]-1H-pyrrolo[2,3-b]pyridin-4-yl}-1H-indole-3-carbonitrile] | 178 | 110 |
| OCC(O)CN1CCC(c2cc3c(-c4ccc5ncn(Cc6cncc(F)c6)c5c4)ccnc3[nH]2)CC1 (stereo not shown) [Example 17, 3-[4-(4-{1-[(5-fluoropyridin-3-yl)methyl]-1H-benzimidazol-6-yl}-1H-pyrrolo[2,3-b]pyridin-2-yl)piperidin-1-yl]propane-1,2-diol] | 120 | 66 |
| N#Cc1cn(Cc2ccccc2)c2cc(-c3ncnc4[nH]c(C5=CCN(CC(O)CO)CC5)cc34)ccc12 (stereo not shown) [Example 31, 1-benzyl-6-{6-[1-(2,3-dihydroxypropyl)-1,2,3,6-tetrahydropyridin-4-yl]-7H-pyrrolo[2,3-d]pyrimidin-4-yl}-1H-indole-3-carbonitrile] | – | 30 |
| O=C(CO)N1CCC(c2cc3c(-c4cc5c(cc4F)ncn5CC4CCOCC4)ccnc3[nH]2)CC1 [Example 21, 1-(4-{4-[5-fluoro-1-(tetrahydro-2H-pyran-4-ylmethyl)-1H-benzimidazol-6-yl}-1H-pyrrolo[2,3-b]pyridin-2-yl]piperidin-1-yl)-2-hydroxyethanone] | 1850 | 100 |
| COC(=N)c1cn(Cc2cccc(F)c2)c2cc(-c3ccnc4[nH]c(C5CCNCC5)cc34)c(F)cc12 [Example 41, methyl 5-fluoro-1-(3-fluorobenzyl)-6-[2-(piperidin-4-yl)-1H-pyrrolo[2,3-b]pyridin-4-yl]-1H-indole-3-carboximidate] | 590 | 91 |
| CS(=O)(=O)N1CCC(c2cc3c(-c4ccc5ccn(Cc6cncc(F)c6)c5n4)ccnc3[nH]2)CC1 [Example 53, 1′-[(5-fluoropyridin-3-yl)methyl]-2-[1-(methylsulfonyl)piperidin-4-yl]-1H,1′H-4,6′-bipyrrolo[2,3-b]pyridine] | 1400 | 8 |

Other lines, results leading:

| EC50 [1] [nM] | IC50 [2] [nM] | SMILES |
| --- | --- | --- |
| 6300 | 85 | c1cc(-c2cnc3ccn(CC4CCOCC4)c3c2)c2cc(C3CCNCC3)[nH]c2n1 [Example 30, 6-{2-(piperidin-4-yl)-1H-pyrrolo[2,3-b]pyridin-4-yl}-1-(tetrahydro-2H-pyran-4-ylmethyl)-1H-pyrrolo[3,2-b]pyridine] |
| 130 | 38 | CS(=O)(=O)N1CCC(c2cc3c(-c4ccc5ncn(CC6CCOCC6)c5c4)ccnc3[nH]2)CC1 [Example 6, 6-{2-[1-(methylsulfonyl)piperidin-4-yl]-1H-pyrrolo[2,3-b]pyridin-4-yl}-1-(tetrahydro-2H-pyran-4-ylmethyl)-1H-benzimidazole] |
| 858 | 120 | Fc1cc2ncn(CC3CCOCC3)c2cc1-c1ccnc2[nH]c(C3CCNCC3)cc12 [Example 18, 5-fluoro-6-[2-(piperidin-4-yl)-1H-pyrrolo[2,3-b]pyridin-4-yl]-1-(tetrahydro-2H-pyran-4-ylmethyl)-1H-benzimidazole] |
| 1100 | 44 | c1cc(-c2ccc3ccn(CC4CCOCC4)c3n2)c2cc(C3CCNCC3)[nH]c2n1 [Example 44, 2-(piperidin-4-yl)-1′-(tetrahydro-2H-pyran-4-ylmethyl)-1H,1′H-4,6′-bipyrrolo[2,3-b]pyridine] |
| 200 | 13 | N#Cc1cn(Cc2cccc(F)c2)c2nc(-c3ccnc4[nH]c(C5CCNCC5)cc34)ccc12 [Example 35, 1′-(3-fluorobenzyl)-2-(piperidin-4-yl)-1H,1′H-4,6′-bipyrrolo[2,3-b]pyridine-3′-carbonitrile] |
| 7000 | 53 | Clc1cc2ncn(CC3CCOCC3)c2cc1-c1ccnc2[nH]c(C3CCNCC3)cc12 [Example 27, 5-chloro-6-[2-(piperidin-4-yl)-1H-pyrrolo[2,3-b]pyridin-4-yl]-1-(tetrahydro-2H-pyran-4-ylmethyl)-1H-benzimidazole] |
| 500 | 69 | c1cc(-c2ccc3ncn(CC4CCOCC4)c3n2)c2cc(C3CCNCC3)[nH]c2n1 [Example 7, 5-[2-(piperidin-4-yl)-1H-pyrrolo[2,3-b]pyridin-4-yl]-3-(tetrahydro-2H-pyran-4-ylmethyl)-3H-imidazo[4,5-b]pyridine] |
| 1970 | 160 | CNC(=O)N1CCC(c2cc3c(-c4cc5c(cc4F)ncn5CC4CCOCC4)ccnc3[nH]2)CC1 [Example 20, 4-{4-[5-fluoro-1-(tetrahydro-2H-pyran-4-ylmethyl)-1H-benzimidazol-6-yl]-1H-pyrrolo[2,3-b]pyridin-2-yl}-N-methylpiperidine-1-carboxamide] |
| 1800 | 140 | CS(=O)(=O)N1CCC(c2cc3c(-c4cnc5ccn(CC6CCOCC6)c5c4)ccnc3[nH]2)CC1 [Example 46, 6-{2-[1-(methylsulfonyl)piperidin-4-yl]-1H-pyrrolo[2,3-b]pyridin-4-yl}-1-(tetrahydro-2H-pyran-4-ylmethyl)-1H-pyrrolo[3,2-b]pyridine] |
